Reference: the NIST ThermoML archive (doi:10.1021/je8004134)
Numbers after ± are expanded uncertainties.

Experiment: an = ratio of the nth substance listed, in mol/kg
Settings: 298.15 K, 101 kPa, Liquid; for speed of sound: Sing-around technique in a fixed-path interferometer; for mass density: Vibrating tube method

CC(=O)N(C)C [N,N-dimethylethanamide] + [Cl-].[Cl-].[Zn+2]
a2 = 0
Settings | mass density [kg/m3] | speed of sound [m/s]
– | 936.22 ± 0.25 | 1455.4 ± 1.2

CC(=O)N(C)C [N,N-dimethylethanamide] + [Cl][Co][Cl]
a2 = 0
Settings | mass density [kg/m3] | speed of sound [m/s]
– | 936.417 ± 0.25 | 1455.4 ± 1.2

CC(=O)N(C)C [N,N-dimethylethanamide] + [Cl][Cu][Cl]
a2 = 0
Settings | mass density [kg/m3] | speed of sound [m/s]
– | 936.304 ± 0.25 | 1455.4 ± 1.2

CC(=O)N(C)C [N,N-dimethylethanamide] + [Cl][Mn][Cl]
a2 = 0
Settings | mass density [kg/m3] | speed of sound [m/s]
– | 936.233 ± 0.25 | 1455.4 ± 1.2

CC(=O)N(C)C [N,N-dimethylethanamide] + [Cl][Ni][Cl]
a2 = 0
Settings | mass density [kg/m3] | speed of sound [m/s]
– | 936.23 ± 0.25 | 1455.4 ± 1.2

CC(=O)N(C)C [N,N-dimethylethanamide] + [Co+2].[O-][Cl+3]([O-])([O-])[O-].[O-][Cl+3]([O-])([O-])[O-]
a2 = 0
Settings | mass density [kg/m3] | speed of sound [m/s]
– | 936.233 ± 0.32 | 1455.4 ± 1.2

CC(=O)N(C)C [N,N-dimethylethanamide] + [Cu+2].[O-][Cl+3]([O-])([O-])[O-].[O-][Cl+3]([O-])([O-])[O-]
a2 = 0
Settings | mass density [kg/m3] | speed of sound [m/s]
– | 936.11 ± 0.32 | 1455.4 ± 1.2

CC(=O)N(C)C [N,N-dimethylethanamide] + [Mn+2].[O-][Cl+3]([O-])([O-])[O-].[O-][Cl+3]([O-])([O-])[O-]
a2 = 0
Settings | mass density [kg/m3] | speed of sound [m/s]
– | 936.213 ± 0.31 | 1455.4 ± 1.2

CC(=O)N(C)C [N,N-dimethylethanamide] + [Ni+2].[O-][Cl+3]([O-])([O-])[O-].[O-][Cl+3]([O-])([O-])[O-]
a2 = 0
Settings | mass density [kg/m3] | speed of sound [m/s]
– | 936.168 ± 0.32 | 1455.4 ± 1.2

CC(=O)N(C)C [N,N-dimethylethanamide] + [O-][Cl+3]([O-])([O-])[O-].[O-][Cl+3]([O-])([O-])[O-].[Zn+2]
a2 = 0
Settings | mass density [kg/m3] | speed of sound [m/s]
– | 936.15 ± 0.31 | 1455.4 ± 1.2

[Cl][Co][Cl] [cobalt chloride] + CC(=O)N(C)C
Settings | mass density [kg/m3] | speed of sound [m/s]
a1 = 0.02558 | 938.7 ± 0.25 | 1456.5 ± 1.2
a1 = 0.05173 | 941.28 ± 0.25 | 1457.3 ± 1.2
a1 = 0.07676 | 943.75 ± 0.25 | 1458 ± 1.2
a1 = 0.1024 | 946.279 ± 0.24 | 1458.9 ± 1.2
a1 = 0.1289 | 948.892 ± 0.24 | 1459.8 ± 1.2
a1 = 0.1539 | 951.355 ± 0.24 | 1460.7 ± 1.2
a1 = 0.181 | 954.035 ± 0.24 | 1461.6 ± 1.2
a1 = 0.2056 | 956.46 ± 0.24 | 1462.6 ± 1.2

[Cl][Co][Cl] [cobalt chloride] + C[S+](C)[O-]
Settings | mass density [kg/m3] | speed of sound [m/s]
a1 = 0.04252 | 1099.76 ± 0.33 | 1485.1 ± 1.2
a1 = 0.06132 | 1101.77 ± 0.33 | 1485.6 ± 1.2
a1 = 0.08074 | 1103.85 ± 0.33 | 1486.2 ± 1.2
a1 = 0.1018 | 1106.1 ± 0.33 | 1486.7 ± 1.2
a1 = 0.122 | 1108.29 ± 0.33 | 1487.4 ± 1.2
a1 = 0.1423 | 1110.49 ± 0.33 | 1488.2 ± 1.2
a1 = 0.1621 | 1112.63 ± 0.33 | 1488.8 ± 1.2
a1 = 0.1818 | 1114.77 ± 0.33 | 1489.5 ± 1.2
a1 = 0.202 | 1116.97 ± 0.33 | 1490 ± 1.2

[Co+2].[O-][Cl+3]([O-])([O-])[O-].[O-][Cl+3]([O-])([O-])[O-] [cobalt(II) perchlorate] + CC(=O)N(C)C
Settings | mass density [kg/m3] | speed of sound [m/s]
a1 = 0.029 | 942.693 ± 0.32 | 1459.3 ± 1.2
a1 = 0.04235 | 945.675 ± 0.32 | 1461 ± 1.2
a1 = 0.05501 | 948.505 ± 0.32 | 1462.7 ± 1.2
a1 = 0.08591 | 955.413 ± 0.32 | 1466.7 ± 1.2
a1 = 0.1144 | 961.778 ± 0.31 | 1470.4 ± 1.2
a1 = 0.1415 | 967.838 ± 0.31 | 1474 ± 1.2
a1 = 0.1692 | 974.036 ± 0.31 | 1477.8 ± 1.2
a1 = 0.1973 | 980.3 ± 0.31 | 1481.6 ± 1.2
a1 = 0.2214 | 985.701 ± 0.31 | 1484.9 ± 1.2

[Co+2].[O-][Cl+3]([O-])([O-])[O-].[O-][Cl+3]([O-])([O-])[O-] [cobalt(II) perchlorate] + C[S+](C)[O-]
Settings | mass density [kg/m3] | speed of sound [m/s]
a1 = 0.0215 | 1099.78 ± 0.37 | 1485.5 ± 1.2
a1 = 0.03236 | 1102.1 ± 0.38 | 1486.2 ± 1.2
a1 = 0.04309 | 1104.4 ± 0.38 | 1486.9 ± 1.2
a1 = 0.05528 | 1107.03 ± 0.38 | 1487.7 ± 1.2
a1 = 0.06505 | 1109.14 ± 0.38 | 1488.3 ± 1.2
a1 = 0.08726 | 1113.97 ± 0.38 | 1489.8 ± 1.2
a1 = 0.1069 | 1118.27 ± 0.38 | 1491 ± 1.2
a1 = 0.1285 | 1123.03 ± 0.38 | 1492.5 ± 1.2
a1 = 0.148 | 1127.38 ± 0.39 | 1493.7 ± 1.2
a1 = 0.1695 | 1132.18 ± 0.39 | 1495.2 ± 1.2
a1 = 0.1911 | 1137.05 ± 0.39 | 1496.6 ± 1.2

[Cl][Cu][Cl] [copper chloride] + CC(=O)N(C)C
Settings | mass density [kg/m3] | speed of sound [m/s]
a1 = 0.04793 | 941.347 ± 0.25 | 1456.2 ± 1.2
a1 = 0.09502 | 946.26 ± 0.25 | 1457.1 ± 1.2
a1 = 0.139 | 950.849 ± 0.25 | 1458 ± 1.2
a1 = 0.1852 | 955.662 ± 0.24 | 1458.9 ± 1.2
a1 = 0.2306 | 960.406 ± 0.24 | 1459.9 ± 1.2
a1 = 0.2755 | 965.086 ± 0.24 | 1460.9 ± 1.2
a1 = 0.3194 | 969.661 ± 0.24 | 1461.9 ± 1.2
a1 = 0.364 | 974.319 ± 0.24 | 1462.9 ± 1.2

[Cl][Cu][Cl] [copper chloride] + C[S+](C)[O-]
Settings | mass density [kg/m3] | speed of sound [m/s]
a1 = 0.04097 | 1100.01 ± 0.33 | 1485.3 ± 1.2
a1 = 0.05136 | 1101.21 ± 0.33 | 1485.5 ± 1.2
a1 = 0.0616 | 1102.39 ± 0.33 | 1485.8 ± 1.2
a1 = 0.07134 | 1103.53 ± 0.33 | 1486 ± 1.2
a1 = 0.08195 | 1104.77 ± 0.33 | 1486.2 ± 1.2
a1 = 0.09202 | 1105.94 ± 0.33 | 1486.4 ± 1.2
a1 = 0.1022 | 1107.13 ± 0.33 | 1486.6 ± 1.2

[Cu+2].[O-][Cl+3]([O-])([O-])[O-].[O-][Cl+3]([O-])([O-])[O-] [copper perchlorate] + CC(=O)N(C)C
Settings | mass density [kg/m3] | speed of sound [m/s]
a1 = 0.06523 | 950.245 ± 0.31 | 1463.1 ± 1.2
a1 = 0.09641 | 957.338 ± 0.32 | 1466.4 ± 1.2
a1 = 0.1434 | 968.019 ± 0.31 | 1471.3 ± 1.2
a1 = 0.1894 | 978.49 ± 0.31 | 1476.5 ± 1.2
a1 = 0.2336 | 988.543 ± 0.31 | 1481.5 ± 1.2
a1 = 0.2774 | 998.499 ± 0.31 | 1486.9 ± 1.2
a1 = 0.3204 | 1008.3 ± 0.31 | 1492.2 ± 1.2
a1 = 0.364 | 1018.21 ± 0.31 | 1498.1 ± 1.2
